Test results taken from US20220305003A1, “METHODS OF TREATING CANCER WITH AN INHIBITOR OF ZNF827” (CHILDREN'S MEDICAL RESEARCH INSTITUTE, priority 2019, published 2022).

T1: ZNF827 SUMOylation mutant (Homo sapiens, UniProt Q17R98 SEQ:4-1079)
T1 chain: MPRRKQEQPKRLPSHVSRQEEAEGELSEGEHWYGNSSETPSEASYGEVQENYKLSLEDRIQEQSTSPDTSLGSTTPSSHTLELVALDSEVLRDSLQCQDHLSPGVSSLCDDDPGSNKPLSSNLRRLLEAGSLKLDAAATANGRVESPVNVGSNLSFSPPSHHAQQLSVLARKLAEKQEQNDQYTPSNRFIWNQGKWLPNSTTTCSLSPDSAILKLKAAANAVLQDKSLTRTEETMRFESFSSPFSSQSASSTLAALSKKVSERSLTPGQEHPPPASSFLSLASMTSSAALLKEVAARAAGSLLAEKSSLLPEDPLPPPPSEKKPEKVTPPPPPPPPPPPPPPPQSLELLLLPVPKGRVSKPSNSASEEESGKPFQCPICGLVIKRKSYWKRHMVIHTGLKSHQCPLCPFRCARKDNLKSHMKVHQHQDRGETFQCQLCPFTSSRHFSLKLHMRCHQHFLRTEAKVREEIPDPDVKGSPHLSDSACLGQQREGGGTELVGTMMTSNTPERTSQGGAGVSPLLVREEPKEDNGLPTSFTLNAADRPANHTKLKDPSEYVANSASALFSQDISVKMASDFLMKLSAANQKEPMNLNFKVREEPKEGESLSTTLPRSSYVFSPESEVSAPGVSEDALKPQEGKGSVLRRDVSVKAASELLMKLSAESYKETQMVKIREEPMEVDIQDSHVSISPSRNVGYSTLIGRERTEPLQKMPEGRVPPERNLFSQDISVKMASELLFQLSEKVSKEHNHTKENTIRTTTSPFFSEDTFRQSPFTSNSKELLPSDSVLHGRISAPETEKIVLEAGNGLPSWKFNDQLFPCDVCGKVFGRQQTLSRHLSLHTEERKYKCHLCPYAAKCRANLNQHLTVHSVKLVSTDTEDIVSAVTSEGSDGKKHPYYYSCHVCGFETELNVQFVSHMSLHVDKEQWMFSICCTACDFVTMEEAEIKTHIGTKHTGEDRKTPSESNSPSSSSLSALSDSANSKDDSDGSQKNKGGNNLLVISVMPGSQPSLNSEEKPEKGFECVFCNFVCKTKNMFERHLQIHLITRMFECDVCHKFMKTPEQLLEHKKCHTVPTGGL


Columns and labels:
[1] = test system: HT1080 FUCCI cells; experiment: Live cell imaging of cell cycle in FUCCI cells; format: cell-based
Protocol: To further characterise the impact of ZNF827 on the cell cycle, live cell imaging was conducted with HT1080 FUCCI cells, to monitor cell progression through the cell cycle in real-time following ZNF827 depletion. The FUCCI (fluorescence ubiquitination cell cycle indicator) cells were stably transfected with fluorescence-labelled cell cycle-regulated proteins, geminin (labelled by GFP) and Cdt1 (labelled by RFP), which are only expressed during specific phases of the cell cycle (FIG. 9c). Their expressions are used to classify cells by cell cycle phase in a live cell setting.
HT1080 FUCCI cells were seeded in glass bottom 12-well plates (MakTek Corporation) the day before imaging at 30% confluency, to ensure that cells were actively cycling for the duration of the experiment. Media was replaced with phenol red free DMEM (Gibco) supplemented with 10% FCS and drug treatment immediately before transferring the plate to the microscope chamber. Imaging was performed on the Cell Observer Widefield Microscope (Zeiss) using a 20× objective at 37° C. with 10% CO2 in a XLmulti S1 full enclosure chamber. Cells were incubated in the XLmulti S1 full enclosure chamber for 2 hours prior to imaging. Three to four positions per well were captured with AxioCam (Zeiss) 506 Mono using ZEN software (Carl Zeiss) with images taken every 6 minutes for 60 hours. More than 15 cells were analysed at each position for each condition to confirm reproducibility.

[2] = biological target: T1, ZNF827 SUMOylation mutant; experiment: EMSA; positive control; 0.8 mM ZnCl2, 100 mM KCl, poly(dI:dC), on ice; details: tags: HaloTag (pHTN), expressed in HEK 293T, tag removed by HaloTEV cleavage; label: 32P (gamma)
Protocol: Purified proteins were quantified using a BCA assay using the Pierce™ BCA Protein Assay Kit according to the manufacturer's instructions. Equal amounts of purified proteins were incubated in binding buffer (20 mM HEPES-KOH, pH7.9, 100 mM KCl, 0.8 mM ZnCl₂, 0.2 mM EDTA, 5% glycerol, 0.5 mM DTT and 0.5 mM PMSF) with 6.25 μg/mL poly (dI:dC) and 50 ng/μL BSA on ice for 20 minutes. ˜0.12 nM (˜2.5 fmol) γ-³²P labelled DNA oligonucleotide (see Table 3) probes were added to samples and incubated on ice for another 30 minutes. Binding reactions were loaded onto an 8% native acrylamide/bisacrylamide (19:1, Biorad) gel pre-run at 100V in 0.5× TB buffer (89 mM Tris, 89 mM boric acid) for 20 minutes. Gels were electrophoresed at 150 V for 150 minutes at 4° C., dried at 65° C. for 45 minutes, and then exposed to a Phosphor screen overnight. Gel images were obtained by scanning the screens with a Typhoon FLA9500 Imager (GE Life Sciences).
To identify which zinc fingers are required for DNA binding activity, zinc finger mutants with either one or both zinc finger clusters deleted were also generated and purified (FIG. 1). Purified proteins were validated by HaloTag® TMR ligand detection and western blot analysis. Mass spectrometry (MS) analysis also confirmed the specificity of the HaloTag protein purification method. […]

[3] = 72 hr siRNA knockdown in conjunction with topotecan 2 μg/mL 1 hr

Molecule | G1 duration / G1 arrest ([1]; 72 hr siRNA knockdown alone) | S/G2-M duration / G2/M arrest ([1]; 72 hr siRNA knockdown alone) | G1 duration / G1 arrest [1, 3] | S/G2-M duration / G2/M arrest [1, 3] | binding result [2]
siZNF827: Stealth RNAi siRNA ZNF827HSS135819 duplex oligoribonucleotides (Invitrogen), SEQ ID NO: 12 and 13 (chain 1 GGGCAGUCUUCUGGCUGAGAAAUCA; chain 2 UGAUUUCUCAGCCAGAAGACUGCCC; listed as RNA, further chemistry not given here) | strong G1 arrest comparable to topotecan treatment | no impact on G2/M by itself | further exacerbated G1 arrest | significant decrease in topotecan induced G2/M arrest | 
TTAGGGTTAGGGTTAGGG (ssDNA) [ss telomeric G rich oligo] |  |  |  |  | binds
